US8026274B2, “Use of oxandrolone in the treatment of burns and other wounds” (Savient Pharmaceuticals, Inc., priority 1996, dated 2011)
“Also recorded” adds a separate entry of the source.

Assays:
[1] = in vivo; cited from earlier work
[2] = test system: burn patients (deep burn of 30-50% of body surface); experiment: Example 2: effect of oxandrolone on post-burn catabolism (II), first three weeks of recovery phase; type: in vivo, human
Description: Another study on the effect of oxandrolone on post-burn patients was carried out as follows.
The onset of the study was defined as the onset of the recovery phase (anabolic phase). The study period included the first three weeks of the recovery phase. Although somewhat arbitrary, the beginning of the recovery period was determined for all patients using the following criteria: • a. No need for life support measures, with a stable cardiopulmonary status; • b. No active infection; • c. Basal body temperature below 99.5° F.; • d. Metabolic rate at rest (indirect calorimetry) being less than 130% of normal; • e. Open wound (not counting donor sites) not exceeding 10% TBS; • f. Patient taking adequate oral diet with supplements or tube feeding and off all parenteral feeding; • g. active participation in a physical therapy program including resistance exercises especially to large muscle groups.
The patients were divided into three groups in a prospective randomized manner: • Group 1: High protein high calorie ad lib oral diet and protein supplement Met-Rx™. The supplement was given in a quantity equal to approximately one liter so that total protein intake would approximate 2 g/kg/day. • Group 2: Same as Group I with the addition of oxandrolone 10 mg orally twice a day. • Group 3: ad lib oral diet and a protein hydrolysate supplement (Ensure-HN or Sustacal). These supplements contain approximately 40-45 g/l protein, 140-150 g/l carbohydrate and 30-37 g/l fat. Daily protein intake consumed equalled 1.3-1.5 g/kg or 75% above the RDA value for healthy normals of 0.8 g/kg. This group was managed in the ten months prior to the onset of this study.
All patients were located in the burn/trauma step-down unit and then transferred to an acute rehabilitation hospital usually within the first week of onset of the recovery period. A burn nurse coordinator followed all patients at the rehabilitation hospitals. All patients were monitored until discharge but only the first three week period was used for the study period.
The following factors were checked: • a. Fatigue was measured objectively through increases in pulse of over 75% of predicted maximum (based on age) and a respiratory rate exceeding 30 breaths per minute beyond one minute after completion of the activity. • b. Muscle function was quantitated using a physical therapy index. The physical therapy program was determined for each patient by the burn therapist team based on optimum projected goals to be achieved at the three week period. Standard isokinetic and resistance exercises were used to increase strength. Ambulation, stair climbing and the stationary bike were used to increase endurance. Since the basic components of therapy programs were nearly identical between patients, an index was developed which quantitated progress of patient performance:
• c. Body weight; • d. Daily nutritional profiles; • e. Liver function
Within each group, paired data was analyzed using Dunnett's T-test comparing individual time periods. Between groups, analysis was compared by use of a nonparametric method, the Wilcoxan Signed Rank Test. Standard regression analysis was also performed. A p<0.05 was considered significant.

[3] = test system: patients with alcoholic hepatitis; conditions: dosages of up to 80 mg/day; cited from earlier work
[4] = test system: pressure sores (decubitus ulcers) in a paraplegic patient; experiment: Example 3: oxandrolone treatment of pressure sores (decubitus ulcers); type: in vivo, human; conditions: 20 mg per day orally, preliminary result
Description: A paraplegic patient was suffering from pressure sores (decubitus ulcers) which had been unhealed for over one year. […] Further experiments using oxandrolone for treatment of pressure sores and other wounds are planned.

[5] = test system: burn patients (deep burn of 30-50% of body surface); experiment: Example 1: effect of oxandrolone on post-burn catabolism (I), recovery phase in burn patients; type: in vivo, human
Description: A study on the effect of oxandrolone on post-burn patients was performed as described below.
The patients included in this study had undergone: • a. catabolic phase until 80-90% of wound closure (4-10 weeks); • b. loss of 15-25% body weight (mostly lean body mass) during catabolic phase despite optimum nutrition;
The transition from “catabolic” to recovery “anabolic” was defined by: • a. No need for life support measures, being stable and out of the Intensive Care Unit (ICU); • b. No active infection (stress); • c. Open wound (not counting donor sites) not exceeding 10% Total Body Surface (TBS); • d. Patient taking oral diet with supplements or tube feeding (off parenteral feeding); • e. patient can actively participate in a physical therapy program with active ROM exercises accentuating the anabolic stimulus of exercise.
All patients were located in the burn step-down unit or in an acute rehabilitation hospital where daily information is retrieved from the physiatrist, nutritionist, and therapist.
The patients were divided into three groups in a prospective randomized manner: • Group 1: Standard nutritional goals as defined by the nutrition support service. • Group 2: Same as Group 1 plus 2-3 Met-Rx™ (protein supplement) per day (sufficient protein to increase daily protein intake to 2-2.2 g/kg/day). • Group 3: Same as Group 2 plus oxandrolone 20 mg orally four times daily. Measurements
The following factors were checked: • a. Subjective energy level (per Braintree study) 0-10; • b. Physical therapy index^1 (per Braintree study) 0-10: • 0 completes 25% session with fatigue • 2 completes 50% session with fatigue • 4 completes 75% session with fatigue • 6 completes 100% session with fatigue • 8 completes 100% session with no fatigue • 10 completes 100% session and more with no fatigue; • c. Weekly weight gain; • d. Daily nutritional profiles; • e. Measurement of lean body mass by bioelective impedance. ^1 assessment of muscle strength and endurance
The onset of the study was defined as the onset of the recovery phase (anabolic phase). Patients were studied for 3 weeks (from the onset of anabolism).

[6] = in contrast to the majority of oral androgenic anabolic steroids; cited from earlier work
[7] = doses below 80 mg; cited from earlier work
[8] = Group 2: oxandrolone 10 mg orally twice a day plus Met-Rx
[9] = Group III: oxandrolone 20 mg orally four times daily plus Met-Rx, 3 weeks

C[C@]12COC(=O)C[C@@H]1CC[C@@H]1[C@@H]2CC[C@@]2(C)[C@H]1CC[C@]2(C)O [oxandrolone, 17α-methyl-17β-hydroxy-2-oxa-5α-androstan-3-one]
anabolic activity relative to its androgenic activity [1]: approximately 6 times | anabolic activity relative to that of methyltestosterone [1]: 6.3 times | maintenance of weight after discontinuation ([2]; 3 of 6 patients followed for eight weeks after discontinuation of three weeks of oxandrolone): the weight remained | average time of discharge from the rehabilitation or recovery phase to home [2, 8]: 22 ± 4 days | weight gain over the three week period relative to Group 1 (Met-Rx alone) [2, 8]: double that of Group 1 | weight gain relative to retrospective Group 3 (standard supplements) [2, 8]: nearly four times that of retrospective Group 3; also recorded: significantly increased | physical therapy index (muscle strength and endurance, 0-10) ([2]; Group 2: oxandrolone 10 mg orally twice a day plus Met-Rx, three weeks): performance exceeded expectations; also recorded: significantly higher than either of the other groups; also recorded: significantly increased | liver function tests / chemical abnormality ([2]; Group 2: oxandrolone 10 mg orally twice a day plus Met-Rx, one patient): transient small increase in alkaline phosphatase | hirsutism ([2]; the three women in the oxandrolone group): No hirsutism | safety [3]: safe | healing of pressure sores unhealed for over one year [4]: the sores began to heal | energy level (0-10) [5, 9]: markedly improved | therapy (physical therapy index 0-10) [5, 9]: markedly improved | weight gain relative to Group I (standard nutrition) ([5]; Group III: oxandrolone 20 mg orally four times daily plus Met-Rx, 4 patients, 3 weeks): four times that of Group I | food intake ([5]; Group III: oxandrolone plus Met-Rx, compared with Group II): apparent added stimulus to food intake | lean body weight gain as share of weight gain, by bioelective impedance ([5]; combination of Met-Rx and oxandrolone): 80% | hepatic metabolism [6]: relatively little hepatic metabolism | water retention [7]: not reported to occur
